Measured values from patent US20250186419A1, “DOSING REGIMENS FOR TREATING PAIN” (VERTEX PHARMACEUTICALS INCORPORATED, priority 2023, published 2025).
“Also recorded” adds a separate entry of the source.

Key:
[1] = test system: acute pain (surgical and non-surgical); test: Single-arm study of safety and effectiveness of Compound 1 for acute pain, surgical and non-surgical subjects (Example 7); format: in vivo, human; conditions: Compound 1 100 mg first dose, then 50 mg q12h
[2] = test system: acute pain after a bunionectomy; test: Randomized, double-blind, placebo-controlled, 3-arm study of Compound 1 in acute pain after a bunionectomy (Example 5); conditions: Compound 1 100 mg first dose, then 50 mg q12 h, placebo 8 hours
[3] = test system: pain following bunionectomy; test: Randomized, double-blind, placebo-controlled, 5-arm study of Compound 1 in subjects with pain following bunionectomy (Example 4); conditions: for Mean SPID48: oral
Protocol: A randomized, double-blind, placebo-controlled, 5-arm, parallel-design study to evaluate the efficacy and safety of Compound 1 on acute surgical pain is conducted. Bunionectomy is a well-established, multi-dose, surgical, acute pain model. A randomized, double-blind study design was used to avoid observer bias and reduce symptoms or outcomes arising from the subjects' knowledge of treatment.
Male and female patients between the ages of 18 and 75 years (inclusive) with pain that is ≥4 on an 11-point Numeric Pain Rating Scale (NPRS) and is moderate or severe on the Verbal Categorical Rating Scale (VRS) after bunionectomy are included in the study.
Investigational Drug: Compound 1. The investigational drug was administered orally in 10 mg tablets. […] The investigational drug was administered every 12 hours (q12h). A low, mid, and high dosing regimen were tested. The first dose in the low dosing regime was 20 mg, and the subsequent doses were 10 mg g12h. The first dose in the mid dosing regime was 60 mg, and the subsequent doses were 30 mg g12h. The first dose in the high dosing regime was 100 mg, and the subsequent doses were 50 mg g12h.
The reference drug was administered orally in 5 mg/325 mg capsules, supplied as over-encapsulated 5 mg/325 mg tablets. The reference drug was administered in a dose of 5 mg/325 mg every 6 hours (q6h).
After a screening period, subjects receive a primary unilateral first metatarsal bunionectomy repair on Day minus one under regional anesthesia (Mayo and popliteal block). A continuous popliteal sciatic block infusion (0.2% ropivacaine) is started after surgery, and remains in place until approximately 3 AM on Day 1. After removal of the popliteal sciatic block, each subject is randomized when the subject requests the first dose of study drug for pain relief and reports pain ≥4 on the NPRS and moderate or severe pain on the VRS.
Randomization was stratified by site and baseline NPRS (<8 versus ≥8). To maintain the blind, all subjects receive the same number of capsules in a double-dummy design.
Compound 1 was administered every 12 hours (q12h). The final dose of Compound 1 is given 36 hours after the first dose.
Compound 1 placebo capsules are administered every 12 hours (q12h).
11-point (0 to 10) Numeric Pain Rating Scale: NPRS scores are frequently used in bunionectomy studies and are recognized by the FDA as a valid pain intensity measure. On the 11-point NPRS, a score of 0 denotes no pain, and a score of 10 denotes the worst pain intensity imaginable. Subjects reported their pain on the 11-point NPRS immediately before their first dose of the study drug (baseline NPRS score) and at intervals over 48 hour period (i.e. 0.5, 1, 1.5, 2, 3, 4, 5, 6, 8, 12, 16, 20, 24, 28, 32, 36, 40, 44, and 48 hours (±5 minutes)) after the first dose of the study drug. Pain intensity is also recorded on the NPRS immediately before each administration of rescue medication. Pain intensity scores that are collected within 4 hours after a dose of rescue medication are deemed missing, and the missing values are imputed as the intensity recorded immediately before the administration of rescue medication.
SPID-48 is the sum of the pain intensity difference (PID) over the 48 hour time period. A pain intensity score of 0 (no pain) to 10 (worse possible pain) is obtained before starting the study and throughout the 48 time period. The pain score at each assessment time is subtracted from the baseline pain score to provide the total sum score or SPID-48. A higher SPID-48 is better and indicates a reduction in pain intensity compared to the baseline score.
4-point Verbal Categorical Rating Scale: Subjects report their pain on the 4-point VRS (none, mild, moderate, or severe) immediately before their first dose of the study drug (baseline VRS).

[4] = test system: acute pain after an abdominoplasty; test: Randomized, double-blind, placebo-controlled, 3-arm study of Compound 1 in acute pain after an abdominoplasty (Example 6); conditions: Compound 1 100 mg first dose, then 50 mg q12 h, placebo 8 hours
[5] = test system: patients undergoing abdominoplasty; test: Study of Compound 1 in patients undergoing abdominoplasty (NCT05034952); format: in vivo, human
[6] = test system: painful diabetic peripheral neuropathy (DPN); test: Randomized, double-blind, active-controlled, dose-ranging, 4-arm study of Compound 1 in painful diabetic peripheral neuropathy (Example 8)
Source text: The study population included male and female subjects 18 through 80 years of age, inclusive, with presence of bilateral pain in lower extremities due to DPN for at least 1 year, and weekly average Numeric Pain Rating Scale (NPRS) pain score of ≥4.
Subjects who met eligibility criteria entered a 7-day Run-in Period to establish their baseline Numeric Pain Rating Scale (NPRS) pain score and Daily Sleep Interference Scale (DSIS) score. Subjects with a baseline average NPRS score of ≥4 points with limited variation (SD<25% of mean) were eligible for the 12-week Treatment Period followed by a Safety Follow-up Visit.
Randomization was stratified by sex (female and male) and body mass index (≥30 and <30 kg/m^2). To maintain the blind, all subjects received the same number of tablets once daily (qd) in the morning and the same number of capsules 3 times per day (tid) in a double-dummy design.
Acetaminophen was be permitted as a pain rescue medication as needed (prn) throughout the study. Subjects were permitted to take 500 mg of acetaminophen every 4 to 6 hours as needed, up to a maximum of 2500 mg in any 24-hour period.
The reference drug was administered orally in a 100 mg capsule tid.
From Day −7 through Week 12, subjects reported their average daily pain during the last 24 hours on the NPRS via e-diary; during the treatment period, the NPRS was completed in the morning before the first daily dose. Subjects also reported their current pain score before each administration of rescue medication. The NPRS scores from the daily e-diary, especially the change from baseline in the weekly average at Week 12, were used in the primary endpoint analysis, and the proportion of subjects with ≥30%, ≥50%, and ≥70% reduction in weekly average scores, especially at Week 12, as reported in the daily e-diary were used in the secondary endpoint analyses. For the primary endpoint, daily NPRS scores were averaged over a weekly period to reduce the impact of individual high or low pain scores.
Daily Sleep Interference Scale (DSIS): Pain frequently interferes with sleep, and sleep is important to quality of life. The FDA recommends evaluating the effect of analgesics on sleep. DSIS is commonly used in neuropathic pain studies and is assessed on an 11-point scale. The 11 point scale ranges from 0 (none) to 10 (severe). The DSIS was completed each morning before the first daily dose in an e-diary to describe how pain interfered with the subject's sleep. The change from baseline in the weekly average of DSIS, especially at Week 12, was used in the secondary endpoint analysis.
Patient Global Impression of Change (PGIC): The PGIC is commonly used in neuropathic pain studies, and the Initiative on Methods, Measurement, and Pain Assessment in Clinical Trials (IMMPACT) group recommends it as a core outcome measure for chronic pain studies and is thus evaluated in this study. There is some evidence that PGIC may be more sensitive in neuropathic pain studies than pain intensity assessments because it may assess additional quality of life measures. The assessment consists of a single item on a 7-point scale from 1 (very much improved) to 7 (very much worse). The PGIC was completed at selected study visits to quantify the change in subjects' overall status. The proportion of subjects categorized as improved on the PGIC assessment, especially at Week 12, was used in the secondary endpoint analysis.
Proportion of subjects using Rescue Medication and Total Medication Usage: Acetaminophen was permitted as a pain rescue medication as needed (prn) throughout the study.

[7] = Compound 1 combined dose groups, pregabalin 100 mg tid, 12 weeks

SMILES: COc1c([C@H]2[C@H](C(=O)Nc3ccnc(C(N)=O)c3)O[C@@](C)(C(F)(F)F)[C@H]2C)ccc(F)c1F [Compound 1, (2R,3S,4S,5R)-4-[[3-(3,4-difluoro-2-methoxy-phenyl)-4,5-dimethyl-5-(trifluoromethyl)tetrahydrofuran-2-carbonyl]amino]pyridine-2-carboxamide]
- Patients reporting good, very good, or excellent on Patient Global Assessment (PGA) at end of treatment ([1]; all patients (256 subjects)): 83.2%
- Patients reporting good, very good, or excellent on Patient Global Assessment (PGA) at end of treatment ([1]; non-surgical patients (34 subjects)): 91.2%
- Patients reporting good, very good, or excellent on Patient Global Assessment (PGA) at end of treatment ([1]; surgical patients (222 subjects)): 82.0%
- Serious adverse events related to study drug ([1]; up to 14 days): no serious adverse events were related to Compound 1
- Incidence of serious adverse events ([1]; up to 14 days, 256 subjects): 0.8%
- Treatment discontinuations due to adverse events ([1]; up to 14 days, 256 subjects): 2.0%
- Safety and tolerability ([1]; up to 14 days, surgical and non-surgical pain, 256 subjects): generally safe and well tolerated
- Median time to 2-point reduction in NPRS from baseline [2]: 4 h
- Onset of action ([3]; Compound 1 high dose, 48 hour assessment): rapid and was sustained through the duration of assessment
- Mean SPID48 ([3]; High-dose Compound 1: 100 mg first dose/50 mg every 12 hours, n = 60, NPRS 0 to 48 hours): 137.8
- Mean SPID48 difference from placebo ([3]; Low-dose Compound 1: 20 mg first dose/10 mg every 12 hours, n = 33): 11.9
- Mean SPID48 ([3]; Low-dose Compound 1: 20 mg first dose/10 mg every 12 hours, n = 33, NPRS 0 to 48 hours): 112.9
- Mean SPID48 difference from placebo ([3]; Mid-dose Compound 1: 60 mg first dose/30 mg every 12 hours, n = 62): −14.1
- Mean SPID48 ([3]; Mid-dose Compound 1: 60 mg first dose/30 mg every 12 hours, n = 62, NPRS 0 to 48 hours): 86.9
- Median time to ≥2-point reduction in NPRS from baseline [4]: 2 h
- Improvement in SPID48 [5]: statistically significant improvement in SPID48
- Change from baseline at week 12 in weekly average of daily pain on the NPRS (LS Mean) ([6]; Compound 1 23 mg qd (low dose), painful DPN): −2.18
- Change from baseline at week 12 in weekly average of daily pain on the NPRS (LS Mean) ([6]; Compound 1 46 mg qd (mid dose), painful DPN): −2.11
- Change from baseline at week 12 in weekly average of daily pain on the NPRS (LS Mean) ([6]; Compound 1 69 mg qd (high dose), painful DPN): −2.26
- Reduction in pain from baseline (NPRS) ([6]; all three Compound 1 dose groups (23, 46, 69 mg qd), 12-week treatment, painful DPN): statistically significant and clinically meaningful reduction in pain from baseline; also recorded: significant mean reduction in pain from baseline that started from week 1
- Sleep (Daily Sleep Interference Scale, DSIS) at week 12 ([6]; all three Compound 1 dose groups (23, 46, 69 mg qd), painful DPN): improvement in sleep

SMILES: CC(C)C[C@H](CN)CC(=O)O [Pregabalin, reference compound]
- Incidence of dizziness (adverse event) [6, 7]: 9.3%
- Incidence of peripheral edema (adverse event) [6, 7]: 5.6%
- Incidence of weight increased (adverse event) [6, 7]: 7.4%
- Change from baseline at week 12 in weekly average of daily pain on the NPRS (LS Mean) ([6]; Pregabalin 100 mg tid, painful DPN): −2.09
- Related adverse events ([6]; patients treated with Compound 1 (combined), patients treated with pregabalin 100 mg tid, 12 weeks): 27.8%
